Laboratory results as given in US20240124381A1, “Renewable Bio-advantaged plasticizer generated by reductive coupling of lignin-derived aromatics” (Alliance for Sustainable Energy, LLC, priority 2022, published 2024).

Experiments:
[1] = Glass transition temperature of plasticized PVC by differential scanning calorimetry (DSC); format: physicochemical; conditions: PVC composite with 10 wt % plasticizer; unplasticized PVC 83.0 ° C.; lower preferred
Excerpt: (§1) FIG. 5 provides thermal analysis of lignin-derived biaryl plasticizers. From left to right: unplasticized PVC, 10 wt % plasticized PVC with DEHP, and 10 wt % plasticized PVC with lignin-derived biaryl plasticizers.
(§2) Plasticizer properties of lignin-derived biaryls. The above results provide access to all possible homo- and cross-coupled BPDA derivatives of H, G, and S. These structures provide the basis for testing of these materials as plasticizers for PVC and comparison of their performance relative to the existing petroleum-derived incumbent, di(2-ethylhexyl)phthalate (DEHP). Each of the BPDA methyl esters was subjected to Ti(OBu)4-promoted transesterification with 2-ethylhexanol to afford the corresponding DEH-BPDA derivatives, designated H—H^PL, H-G^PL, H—S^PL, G-G^PL, G-S^PL, and S—S^PL. The thermal properties of these structures were characterized by thermogravimetric analysis (TGA) and differential scanning calorimetry (DSC). DEHP and the DEH-BPDA derivatives were then individually integrated with PVC at 10 wt %, and the composites were analyzed by TGA and DSC to identify their glass transition temperature (Tg) and the temperature at which the polymer degrades with 10% or 50% loss of its original weight (Td10, Td50). The former value reflects the ability of the plasticizer to soften PVC, while the latter values reflect the thermostability of the composite material. […]

[2] = Thermostability of plasticized PVC by thermogravimetric analysis (TGA); format: physicochemical; conditions: PVC composite with 10 wt % plasticizer; PVC itself 272 ° C.; higher preferred
Excerpt: as §1, §2

Question: For `CCCCC(CC)COC(=O)c1ccccc1C(=O)OCC(CC)CCCC` (centres unmarked) [DEHP, di(2-ethylhexyl)phthalate], which “glass transition temperature (Tg)” value [1] is on record?
Answer: Its value is 52.1 °C.

Question: What about the “Td10 (temperature at which the polymer degrades with 10% loss of its original weight)” value [2] of the same compound?
Answer: Its value is 253 °C.
